For data set [1] the following is noted: in vivo; cited from earlier work.
The subject of data set [2] is several types of adenovirus. The conditions noted are these: cited from earlier work.
For data set [3], the system named is HAdV5.
Data set [4] relates to HAdV5. As to conditions: HeLa cells, HAdV5 1000 vpc, heparin 5 I.U. per well and/or MgCl2 5 µmol per well 4 hrs prior to infection, 26 hrs post infection.
In a further data set the test system is H9N2. As to conditions: MDCKII cells, H9N2 MOI 0,1, Heparin 5 I.U. per well and/or MgCl2 5 µmol per well.
The test system of data set [5] is human adenovirus type 5 (HAdV5). The conditions noted are these: solely MgCl2, with 25 µmol MgCl2, HAdV5 1000 vpc, CHO-K1 cells.
Data set [6] in a line: Zinc test series: cytotoxic effect (not described in the Examples). In kind it is cell-based. An excerpt:
(§1) The inventors have also used zinc for some test series (not described in the Examples section). […] Furthermore, the antiviral effect of zinc was not apparent for all adenoviruses tested. An antiviral effect of zinc was detectable only for adenovirus type 5.

A further data set deals with Adenovirus type 10. The experiment in a line: Zinc test series: antiviral effect, adenovirus type 10. In kind it is cell-based.
Excerpt: as §1

In another data set the test system is adenovirus type 5. The experiment in a line: Zinc test series: antiviral effect, adenovirus type 5. The class given is cell-based.
Excerpt: as §1

Where two headings read alike, the source gives them in different places.

On to `Nc1ccn(C[C@@H](CO)OCP(=O)(O)O)c(=O)n1` [Cidofovir], for which, in data set [1], the toxicity entry was “nephrotoxic”.

As to `Nc1nc(O)c2ncn(COC(CO)CO)c2n1` [Ganciclovir], in data set [2], the efficiency against adenovirus result was “not against adenovirus”. In addition, the “half-maximal effective concentration (EC50)” value in data set [2] (in vitro, relative to plasma) is “three times higher than in plasma”.

Turning to `[Cl-].[Cl-].[Mg+2]` [MgCl2, magnesium chloride], the luciferase expression levels in the data set with HAdV5 [3] (only MgCl2 and virus, compared to untreated cells solely infected with virus) was 7%; with HAdV5 [3] (only applying virus and MgCl2), “about 32%”; in the data set on HAdV10 (only MgCl2 and virus), 12%; in the data set on HAdV10 (only applying virus and MgCl2), 10%. Further, the “median fluorescent intensity (MFI)” value in the data set with HAdV5 [4] was 41%. Further, the “infected cells (immunofluorescence)” value with H9N2 is recorded as “slight decrease”. In data set [5], the luciferase values is reported as 40%.

In the case of `NC(=O)c1ncn([C@@H]2O[C@H](CO)[C@@H](O)[C@H]2O)n1` [Ribavirin], in [2] (in vitro), the “antiviral activity against HAdV species C” value is recorded as “antiviral activity” and the “antiviral activity against species A, B, D” value is “limited activation”.

Turning to `[Zn]` [zinc], the cytotoxic effect entry in data set [6] is given as “very strong cytotoxic effect”. The “infection efficiencies in cells treated with zinc” value in the data set on Adenovirus type 10 is reported as “increased infection efficiencies”. For the same molecule, in the data set with adenovirus type 5, the antiviral effect entry is “detectable”.

Source of the values: EP3791884A1, “COMBINATION OF HEPARIN AND MAGNESIUM SALT FOR THE TREATMENT OF VIRAL INFECTIONS” (Bunz, Oskar, priority 2019, dated 2021).
